Here are results for 24 molecules from patent US12187681B2 (Shanghai East Hospital, priority 2019, dated 2025).

Structures can show the parent of a compound that is named as a salt. Where only a bound is given, the exact number is not on record here.

One may read the inhibition as the drop in the measured response relative to a control, in per cent.

Common to all, as to assay type: cell-based
In data set [1] the target is T1, hERG (human ether-a-go-go related gene potassium channel, KCNH2) (Homo sapiens, UniProt Q12809).
T1 construct: expressed in transfected cells; host or cells: HEK293
The data set is described as follows: hERG channel whole-cell patch clamp (Ion Channel Activity Measurement). The settings on record: human, HEK293 cells expressing the human ERG potassium channel, room temperature; for inhibition at 1 μM: pH 7.4, 1 μM test article; for inhibition at 10 μM: pH 7.4, 10 μM test article. The procedure, abridged:
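HEK293 cells stably expressing hERG (NM_000238) were recorded by whole-cell patch clamp at 23-25° C. Holding potential −80 mV, step to 30 mV for 2.5 s, tail currents at −50 mV for 4 s, pulses every 10 s. Each concentration was perfused low to high for 5 min or to steady state, with each cell as its own control.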

The target of data set [2] is T2, CaV1.2 (L-type voltage-dependent calcium channel; CACNA1C, CACNB2, CACNA2D1) (Homo sapiens, UniProt Q13936).
T2 construct: expressed in transfected cells; host or cells: CHO
In words: CaV1.2 channel whole-cell patch clamp (Ion Channel Activity Measurement). The settings on record: human, room temperature; for inhibition at 5 min, 1 μM: pH 7.4, 1 μM test article; for inhibition at 5 min, 10 μM: pH 7.4, 10 μM test article, read-out: CaV 1.2 10 μM (ion-channel inhibition). The method in brief:
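Whole-cell patch clamp was run on CHO cells stably expressing CACNA1C/CACNB2/CACNA2D1 at 23–25 °C, with 10 mM CaCl2 TEA bath (pH 7.4) and CsCl pipette solution (pH 7.2). Currents were evoked from −80 mV to +10 mV for 0.3 s every 20 s without leak subtraction. Ascending concentrations were each applied for 5 min or until steady state.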
For orientation: In patch-clamp work, channel activity is measured electrically.

Data set [3] addresses T3, Iks potassium channel (KCNQ1/KCNE1) (Homo sapiens, UniProt P51787).
T3 construct: expressed in transfected cells; host or cells: CHO
The data set is described as follows: Iks channel whole-cell patch clamp (Ion Channel Activity Measurement). The settings on record: human, CHO cells stably expressing Iks channel (KCNQ1 and KCNE1), room temperature; for inhibition at 5 min, 1 μM: pH 7.4, 1 μM test article; for inhibition at 5 min, 10 μM: pH 7.4, 10 μM test article.
Protocol: CHO cell line stably expressing Iks potassium voltage-gated channel subfamily Q member 1(KCNQ1) and potassium voltage-gated channel subfamily E regulatory subunit 1 (KCNE1), cDNA strictly similar to GenBank accession number: NM_000218 and NM_000219
Cells expressing channels were cultured in medium supplemented with 20% FBS in HAM'S F12 culture dish. Cells grew in a humidified incubator at 37° C. under 5% carbon dioxide. To passage cells, remove poor medium and rinse the cells once with PBS 1X. […] Place plate on a 37° C. warming incubator 5 min. As soon as cells are detached, add 5 ml of 37° C. complete medium. Draw cell suspension into a sterile pipet and homogenize cells gently to dissociate cells aggregates. Amplify or maintain the cells by seeding 2.5*105 cells in a 6 cm dish (final volume: 5 ml). To maintain electrophysiological performances, cell density must not exceed 80%. On the day before patch clamp experiment, 3*103 cells were seeded on coverslips in the 24-well plate and incubated at 37° C. in 5% carbon dioxide.
Extracellular solution (mM): 140 NaCl, 2.5 KCl, 1 MgCl2, 2 CaCl2, 5 Glucose, 10 HEPES, pH=7.4 with NaOH.
Pipette solution (mM): 120 K-aspartic, 10 HEPES, 5 MgCl2, 5 EGTA, 4 Na2-ATP 0.3 Na2-GTP, 14 mM Phosphocreatine disodium salt, 20 u/mL Creatine phosphor kinse pH 7.2 with KOH
Glass pipette (BF150-86-10, Sutter Instruments) was made by puller (P97, Sutter Instruments). The glass pipette was manipulated using Micro-manipulator (Carm-C-S, MCI Instruments) under the microscope (AE31EF-INV, Motic). After touching the cell, a slight suction was applied to achieve high seal (GΩ). Fast capacitance (in pF) compensation was made after high seal was achieved; after achieving high seal, the membrane was broken, Cell capacitance (in pF) compensation was made from whole-cell capacitance compensation after the whole cell mode was achieved. No leak subtraction was made.
Cell was incubated with the test article for 5 minutes, or until the current reached a steady-state level. Multiple concentrations of test article were tested. The test articles were applied gradually from low to high concentration. The test and control solutions were flown into a recording chamber mounted on the stage of an inverted microscope via a gravity-fed solution delivery system. During the experiment, solutions were withdrawn from the recording chamber by vacuum aspiration. Each concentration was tested at multiple times. Each cell acted as its own control. All tests were performed at room temperature (23-25° C.).
IKs current was measured using a pulse protocol consisting of −80 mV holding potential increment up to +60 mV over a period of 5 seconds. And then quickly repolarizedat −40 mV and maintained for 4 seconds.

T1 sequence (Q12809 whole entry): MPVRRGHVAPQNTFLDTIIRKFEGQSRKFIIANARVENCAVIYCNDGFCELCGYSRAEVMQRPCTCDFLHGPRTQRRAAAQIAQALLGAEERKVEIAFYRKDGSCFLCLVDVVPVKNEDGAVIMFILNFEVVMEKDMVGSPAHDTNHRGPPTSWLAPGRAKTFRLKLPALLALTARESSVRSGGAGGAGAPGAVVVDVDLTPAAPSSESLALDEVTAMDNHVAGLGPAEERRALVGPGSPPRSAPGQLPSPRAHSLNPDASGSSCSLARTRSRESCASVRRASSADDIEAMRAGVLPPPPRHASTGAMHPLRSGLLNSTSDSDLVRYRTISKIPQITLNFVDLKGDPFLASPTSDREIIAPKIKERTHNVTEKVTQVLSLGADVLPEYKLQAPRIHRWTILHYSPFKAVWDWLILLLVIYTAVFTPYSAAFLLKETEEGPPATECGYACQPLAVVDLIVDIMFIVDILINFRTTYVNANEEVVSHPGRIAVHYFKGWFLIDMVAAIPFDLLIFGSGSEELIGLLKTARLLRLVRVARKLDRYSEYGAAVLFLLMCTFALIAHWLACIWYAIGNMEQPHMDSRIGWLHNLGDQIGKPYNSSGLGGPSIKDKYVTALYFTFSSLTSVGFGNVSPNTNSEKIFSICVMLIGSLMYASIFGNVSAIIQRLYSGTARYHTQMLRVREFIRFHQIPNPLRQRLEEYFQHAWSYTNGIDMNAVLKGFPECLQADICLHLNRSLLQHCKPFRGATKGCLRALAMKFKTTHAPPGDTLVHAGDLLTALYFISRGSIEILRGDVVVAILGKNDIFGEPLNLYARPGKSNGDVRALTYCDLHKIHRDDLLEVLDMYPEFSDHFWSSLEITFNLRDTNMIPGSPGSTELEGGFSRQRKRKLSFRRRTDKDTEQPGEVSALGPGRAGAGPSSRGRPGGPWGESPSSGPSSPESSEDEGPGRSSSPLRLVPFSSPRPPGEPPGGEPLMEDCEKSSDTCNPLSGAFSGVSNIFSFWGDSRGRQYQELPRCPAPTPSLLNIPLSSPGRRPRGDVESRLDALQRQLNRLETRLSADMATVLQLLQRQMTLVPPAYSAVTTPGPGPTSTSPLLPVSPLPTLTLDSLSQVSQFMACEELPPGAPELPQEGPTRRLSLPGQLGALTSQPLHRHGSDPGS
T3 sequence (P51787 whole entry): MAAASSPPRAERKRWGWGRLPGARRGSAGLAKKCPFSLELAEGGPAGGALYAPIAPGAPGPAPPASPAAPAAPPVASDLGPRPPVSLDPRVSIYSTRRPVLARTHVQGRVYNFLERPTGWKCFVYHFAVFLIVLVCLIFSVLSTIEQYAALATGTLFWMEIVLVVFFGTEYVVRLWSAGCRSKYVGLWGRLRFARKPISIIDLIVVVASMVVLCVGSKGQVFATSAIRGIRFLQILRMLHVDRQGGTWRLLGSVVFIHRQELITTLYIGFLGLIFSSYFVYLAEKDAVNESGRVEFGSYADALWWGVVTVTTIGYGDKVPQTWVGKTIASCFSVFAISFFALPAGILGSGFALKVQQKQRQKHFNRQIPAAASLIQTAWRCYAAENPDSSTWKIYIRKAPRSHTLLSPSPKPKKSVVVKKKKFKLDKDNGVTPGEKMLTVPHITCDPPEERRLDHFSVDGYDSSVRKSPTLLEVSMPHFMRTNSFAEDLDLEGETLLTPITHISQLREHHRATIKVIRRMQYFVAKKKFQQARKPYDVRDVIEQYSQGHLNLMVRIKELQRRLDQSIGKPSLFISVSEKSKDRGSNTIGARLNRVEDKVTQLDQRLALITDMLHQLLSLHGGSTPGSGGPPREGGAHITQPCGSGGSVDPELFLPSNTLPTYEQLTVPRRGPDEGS

In data set [1], `COc1ccc2ccccc2c1Cc1c(O)ccc2ccccc12` [Compound A014, 1-((2-methoxynaphthalen-1-yl)methyl)naphthalen-2-ol] showed an inhibition at 1 μM of under 25% and an inhibition at 10 μM of 75 to 100%. In data set [2], the inhibition at 5 min, 1 μM is under 25% and the inhibition at 5 min, 10 μM lay in the range of 50 to 75%. In data set [3], this molecule yielded an inhibition at 5 min, 1 μM of under 25% and an inhibition at 5 min, 10 μM of under 25%.
As to `Oc1ccc2ccccc2c1Cc1c(OCCN2CCCC2)ccc2ccccc12` [Compound A129, 1-((2-(2-(pyrrolidin-1-yl)ethoxy)naphthalen-1-yl)methyl)naphthalen-2-ol], the inhibition at 1 μM in data set [1] lay in the range of 75 to 100%. The inhibition at 5 min, 1 μM in data set [2] and in data set [3] was 25 to 50% each time. For the same molecule, the inhibition at 5 min, 10 μM in data set [2] and in data set [3] was 75 to 100% each time.
As to `O=S(=O)(c1c(O)ccc2ccccc12)c1c(O)ccc2ccccc12` [Compound A005, 1,1′-sulfonylbis(naphthalen-2-ol)], in data set [3], the inhibition at 5 min, 1 μM fell in the range of 25 to 50% and the inhibition at 5 min, 10 μM fell in the range of 25 to 50%.
Take `COc1ccc2ccccc2c1Cc1c(OC)ccc2ccccc12` [Compound A015, bis(2-methoxynaphthalen-1-yl)methane]: in data set [3], the inhibition at 5 min, 1 μM was under 25% and the inhibition at 5 min, 10 μM was under 25%.
In the case of `CC[N+](C)(CC)CCOc1ccc2ccccc2c1Sc1c(OC)ccc2ccccc12` [Compound A191, diethyl(2-((1-((2-methoxynaphthalen-1-yl)thio)naphthalen-2-yl)oxy)ethyl)(methyl)-14-azane, iodide salt], in data set [1], the inhibition at 1 μM lay within 75 to 100% and the inhibition at 10 μM lay within 75 to 100%. In addition, in data set [2], the inhibition at 5 min, 1 μM fell in the range of 25 to 50% and the inhibition at 5 min, 10 μM was 75 to 100%. In data set [3], this molecule returned an inhibition at 5 min, 1 μM of under 25%.
As for `CCN(CC)CCOc1ccc2ccccc2c1Nc1c(OC)ccc2ccccc12` [Compound A111-I-1, 2-(2-(diethylamino)ethoxy)-N-(2-methoxynaphthalen-1-yl)naphthalen-1-amine], in data set [1], the inhibition at 1 μM was 75 to 100% and the inhibition at 10 μM was in the range of 75 to 100%. The inhibition at 5 min, 1 μM in data set [2] is under 25%. In data set [3], this molecule came in with an inhibition at 5 min, 1 μM of under 25% and an inhibition at 5 min, 10 μM of 75 to 100%.
In data set [1], `[O-][S+](c1c(O)ccc2ccccc12)c1c(O)ccc2ccccc12` [Compound A006, 1,1′-sulfinylbis(naphthalen-2-ol)] displayed an inhibition at 1 μM of under 25% and an inhibition at 10 μM of under 25%. Moreover, in data set [2], the inhibition at 5 min, 1 μM is under 25% and the inhibition at 5 min, 10 μM was under 25%. In data set [3], this molecule registered an inhibition at 5 min, 1 μM of under 25% and an inhibition at 5 min, 10 μM of 25 to 50%.
In data set [3], `Oc1ccccc1Cc1ccccc1O` [Compound A016, 2,2′-methylenediphenol] showed an inhibition at 5 min, 1 μM of under 25% and an inhibition at 5 min, 10 μM of under 25%.
In data set [3], `COc1ccc2ccccc2c1C(O)c1c(OC)ccc2ccccc12` [Compound A040, bis(2-methoxynaphthalen-1-yl)methanol] registered an inhibition at 5 min, 1 μM of under 25% and an inhibition at 5 min, 10 μM of 25 to 50%.
In data set [1], `CN(C)CCOc1ccc2ccccc2c1Cc1c(O)ccc2ccccc12` [Compound A134, 1-((2-(2-(dimethylamino)ethoxy)naphthalen-1-yl)methyl)naphthalen-2-ol] displayed an inhibition at 1 μM of 75 to 100% and an inhibition at 10 μM of 75 to 100%. Further, in data set [2], the inhibition at 5 min, 1 μM is under 25% and the inhibition at 5 min, 10 μM was in the range of 75 to 100%. In data set [3], this molecule showed an inhibition at 5 min, 1 μM of 25 to 50% and an inhibition at 5 min, 10 μM of 75 to 100%.
In data set [1], `CCN(CC)CCCOc1ccc2ccccc2c1Cc1c(O)ccc2ccccc12` [Compound A135, 1-((2-(3-(diethylamino)propoxy)naphthalen-1-yl)methyl)naphthalen-2-ol] registered an inhibition at 1 μM of 75 to 100% and an inhibition at 10 μM of 75 to 100%. For the same molecule, in data set [2], the inhibition at 5 min, 1 μM was in the range of 25 to 50% and the inhibition at 5 min, 10 μM was 75 to 100%. Besides, in data set [3], the inhibition at 5 min, 1 μM is under 25% and the inhibition at 5 min, 10 μM was in the range of 75 to 100%.
Turning to `Oc1ccc2ccccc2c1Cc1cccc2ccccc12` [Compound A052, 1-(naphthalen-1-ylmethyl)naphthalen-2-ol], in data set [1], the inhibition at 1 μM is under 25% and the inhibition at 10 μM lay in the range of 75 to 100%. Moreover, in data set [2], the inhibition at 5 min, 1 μM was under 25% and the inhibition at 5 min, 10 μM lay in the range of 75 to 100%. The molecule also yielded an inhibition at 5 min, 1 μM in data set [3] of 25 to 50%.
In data set [1], `O=C1Cc2ccccc2N1Cc1c(O)ccc2ccccc12` [Compound A057, 1-((2-hydroxynaphthalen-1-yl)methyl)indolin-2-one] registered an inhibition at 1 μM of under 25% and an inhibition at 10 μM of under 25%. In addition, in data set [2], the inhibition at 5 min, 1 μM was under 25% and the inhibition at 5 min, 10 μM was under 25%.
In the case of `COc1ccc2ccccc2c1Cc1c(OCC[N+]2(C)CCCC2)ccc2ccccc12` [Compound A129-2, 1-(2-((1-((2-methoxynaphthalen-1-yl)methyl)naphthalen-2-yl)oxy)ethyl)-1-methylpyrrolidin-1-ium formate], the inhibition at 1 μM in data set [1] lay within 25 to 50%. For the same molecule, in data set [2], the inhibition at 5 min, 1 μM lay in the range of 25 to 50% and the inhibition at 5 min, 10 μM lay in the range of 75 to 100%.
In data set [1], `COc1ccc2ccccc2c1Cc1c(OCCN(CCO)CCO)ccc2ccccc12` [Compound A195, 2,2′-((2-((1-((2-methoxynaphthalen-1-yl)methyl)naphthalen-2-yl)oxy)ethyl)azanediyl)bis(ethan-1-ol)] came in with an inhibition at 1 μM of 75 to 100% and an inhibition at 10 μM of 75 to 100%. In data set [2], the inhibition at 5 min, 1 μM was under 25% and the inhibition at 5 min, 10 μM fell in the range of 75 to 100%.
In data set [1], `O=C(c1c(O)ccc2ccccc12)c1c(O)ccc2ccccc12` [Compound A007, bis(2-hydroxynaphthalen-1-yl)methanone] gave an inhibition at 1 μM of under 25% and an inhibition at 10 μM of 25 to 50%. In data set [2], the inhibition at 5 min, 1 μM is under 25% and the inhibition at 5 min, 10 μM is 50 to 75%.
Take `COc1ccc2ccccc2c1Cc1c(OCC2CCNCC2)ccc2ccccc12` [Compound A271, 4-(((1-((2-methoxynaphthalen-1-yl)methyl)naphthalen-2-yl)oxy)methyl)piperidine]: in data set [1], the inhibition at 1 μM fell in the range of 75 to 100% and the inhibition at 10 μM lay in the range of 75 to 100%. Besides, in data set [2], the inhibition at 5 min, 1 μM is 50 to 75%.
In data set [1], `Oc1ccc2c(c1Cc1c(O)ccc3c1CNCC3)CCCC2` [Compound A141-I-1, 8-((2-hydroxy-5,6,7,8-tetrahydronaphthalen-1-yl)methyl)-1,2,3,4-tetrahydroisoquinolin-7-ol] gave an inhibition at 1 μM of under 25% and an inhibition at 10 μM of under 25%. Moreover, in data set [2], the inhibition at 5 min, 1 μM is under 25% and the inhibition at 5 min, 10 μM was under 25%.
In data set [1], `NC(=O)c1ccc2c(Cc3c(O)ccc4ccccc34)c(O)ccc2c1` [Compound A122, 6-hydroxy-5-((2-hydroxynaphthalen-1-yl)methyl)-2-naphthamide] registered an inhibition at 1 μM of 25 to 50% and an inhibition at 10 μM of 75 to 100%. Also, in data set [2], the inhibition at 5 min, 1 μM was under 25% and the inhibition at 5 min, 10 μM is 75 to 100%.
`COc1ccc2ccccc2c1Nc1c([N+](=O)[O-])ccc2ccccc12` [Compound A196, 2-methoxy-N-(2-nitronaphthalen-1-yl)naphthalen-1-amine]: in data set [1], the inhibition at 1 μM was under 25% and the inhibition at 10 μM is under 25%. Besides, in data set [2], the inhibition at 5 min, 1 μM is under 25% and the inhibition at 5 min, 10 μM is under 25%.
`Oc1cccc2c1C(c1c(O)ccc3c1CCCC3)CCC2` (stereo not drawn) [Compound A077-2, 1′,2′,3′,4′,5,6,7,8-octahydro-[1,1′-binaphthalene]-2,8′-diol]: in data set [1], the inhibition at 1 μM was under 25% and the inhibition at 10 μM was 50 to 75%. Moreover, in data set [2], the inhibition at 5 min, 1 μM is under 25% and the inhibition at 5 min, 10 μM was under 25%.
As to `c1ccc(COc2ccc3ccccc3c2Cc2c(OCCN3CCCC3)ccc3ccccc23)cc1` [Compound A291, 1-(2-((1-((2-(benzyloxy)naphthalen-1-yl)methyl)naphthalen-2-yl)oxy)ethyl)pyrrolidine], the inhibition at 1 μM in data set [1] lay in the range of 75 to 100%. For the same molecule, the inhibition at 5 min, 1 μM in data set [2] was under 25%.
As for `NC(=O)c1ccc2ccccc2c1Cc1c(C(N)=O)ccc2ccccc12` [Compound A101, 1,1′-methylenebis(2-naphthamide)], in data set [1], the inhibition at 1 μM was under 25% and the inhibition at 10 μM lay within 50 to 75%. For the same molecule, in data set [2], the inhibition at 5 min, 1 μM is under 25% and the inhibition at 5 min, 10 μM is under 25%.
In data set [1], `Oc1c(Cl)cc2ccccc2c1Cc1c(O)c(Cl)cc2ccccc12` [Compound A046, 1,1′-methylenebis(3-chloronaphthalen-2-ol)] registered an inhibition at 1 μM of under 25% and an inhibition at 10 μM of under 25%. In data set [2], the inhibition at 5 min, 1 μM was under 25% and the inhibition at 5 min, 10 μM is under 25%.
